Results taken from patent US12376538B2, “Rice cultivar designated ‘CLL17’” (Board of Supervisors of Louisiana State University and …, priority 2020, dated 2025).

What follows are molecules tested on ‘CLL17’ rice plant (assay: Herbicide tolerance and susceptibility of 'CLL17' rice plants). Conditions: at levels of the herbicide that would normally inhibit the growth of a rice plant.
Format: in vivo
Source text: The variety is resistant to imidazolinone herbicides. The herbicide resistance (or herbicide tolerance) profile is essentially the same as that of ‘CL161’ through common ancestry. The herbicide tolerance allows ‘CLL17,’ its hybrids, and derived varieties to be used with certain imidazolinone or sulfonylurea herbicides, including among others the imidazolinone herbicides imazethapyr and imazamox, for the selective control of weeds including red rice. See generally U.S. Pat. No. 6,943,280.
Among others, the herbicide tolerance and susceptibility characteristics of ‘CLL17’ include or are expected to include the following.

Row | Structure (SMILES) | herbicide tolerance / susceptibility of ‘CLL17’ (resistant or sensitive)
1 | COc1cc(OC)nc(NC(=O)NS(=O)(=O)c2ncccc2C(=O)N(C)C)n1 [nicosulfuron] | resistant
2 | CC(C)C1(C)N=C(c2nc3ccccc3cc2C(=O)O)NC1=O (stereo not drawn) [imazaquin] | resistant
3 | COC(=O)c1ccccc1S(=O)(=O)NC(=O)Nc1nc(C)nc(OC)n1 [metsulfuron methyl] | resistant
4 | CCOC(=O)c1ccccc1S(=O)(=O)NC(=O)Nc1nc(Cl)cc(OC)n1 [chlorimuron ethyl] | sensitive
5 | COC(=O)c1ccccc1S(=O)(=O)NC(=O)N(C)c1nc(C)nc(OC)n1 [tribenuron methyl] | resistant
6 | Cc1cnc(C2=NC(=O)C(C)(C(C)C)N2)c(C(=O)O)c1 (stereo not drawn) [imazapic] | resistant
7 | CCc1cnc(C2=NC(C)(C(C)C)C(=O)N2)c(C(=O)O)c1 (stereo not drawn) [imazethapyr] | resistant
8 | CC(C)C1(C)N=C(c2ncccc2C(=O)O)NC1=O (stereo not drawn) [imazapyr] | resistant
9 | COCc1cnc(C2=NC(C)(C(C)C)C(=O)N2)c(C(=O)O)c1 (stereo not drawn) [imazamox] | resistant
10 | COC(=O)c1sccc1S(=O)(=O)NC(=O)Nc1nc(C)nc(OC)n1 [thifensulfuron methyl] | resistant
11 | COC(=O)c1ccccc1S(=O)(=O)NC(=O)Nc1nc(C)cc(C)n1 [sulfometuron methyl] | sensitive
12 | CCS(=O)(=O)c1cccnc1S(=O)(=O)NC(=O)Nc1nc(OC)cc(OC)n1 [rimsulfuron] | sensitive
